Laboratory results taken from patent publication US20220401751A1, “Thalamic Input to Orbitofrontal Cortex Drives Brain-Wide, Frequency-Dependent Inhibition Mediated By GABA and Zona Incerta” (priority 2019, published 2022).
Counter-ions that a name gives are not always drawn.

Experiments:
GABAA receptors = test: Single-unit recordings in contralateral VLO during 10 Hz thalamocortical stimulation before and after micro-infusion of BMI; type: in vivo, Sprague-Dawley rats
Protocol: It was next hypothesized that decreases in cortical activity reflect direct GABA-mediated inhibition. The dependence of this response on downstream GABA release was tested by comparing evoked changes in firing rate before and after micro-infusion of bicuculline methiodide (BMI). […] Single-unit recordings were performed in cVLO, where negative fMRI signals were observed during 10 Hz thalamocortical stimulation (FIG. 5A). To ensure that any changes associated with BMI infusion were due to its pharmacological effect, infusions with sterile saline were first performed. To inject both BMI and saline, a pair of cannulas was attached to the recording electrode directly above the electrical contacts (FIG. 5B).
(§1) In vivo electrophysiology was performed to directly measure the neuronal activity of various brain regions during thalamocortical stimulation. As with imaging, anesthesia was maintained with a mixture of 02 (35%), N20 (65%), and −1.5% isoflurane. Throughout the procedure, body temperature was maintained at 37° C. using a thermoresistive heating pad (FHC, Inc., ME, USA). After securing the animal within a stereotactic frame, a 16-channel microelectrode array (NeuroNexus Technologies, MI, USA; A1×16 standard model linear electrode array) was inserted at the desired recording site. For recordings at the site of stimulation and zona incerta, an optical fiber glued to the electrode tip was used to deliver light. Remote recordings were performed at the following coordinates, averaged across animals: contralateral VLO (+4.68 mm AP, −1.90 mm ML, −4.90 mm DV), ipsilateral motor cortex (+3.24 mm AP, +2.43 mm ML, −3.00 mm DV), ipsilateral reticular nucleus (−1.86 mm AP, +2.20 mm ML, −6.93 mm DV), contralateral reticular nucleus (−1.92 mm AP, −2.10 mm ML, −7.17 mm DV), and ipsilateral zona incerta (−4.00 mm AP, +3.10 mm ML, −7.13 mm DV). Light was delivered to the fiber-optic implant at VLO via a 473 nm laser source calibrated to 5 mW power delivery. In one animal, a higher power level was used (no more than −2×) to account for a fiber implanted in a relatively dorsal position in VLO. For the optrode positioned in zona incerta, a […] diameter optical fiber was used to deliver continuous light from a 589 nm laser source (LaserGlow Technologies) calibrated to 5 mW at the implanted fiber's tip. Recordings were performed for 20 s without stimulation, followed by repeated stimulation cycles (20 s on, 40 s off) at 10 or 40 Hz with a 30% duty cycle. To assess the role of zona incerta, 10 Hz stimulation trials were interleaved with 30 s periods of simultaneous eNpHR activation beginning 5 s prior to 10 Hz stimulation (FIG. 7B).
(§2) Pharmacological infusions were performed during in vivo electrophysiology (same procedure as described above) with bicuculline methiodide (BMI; 0.6 mg/ml; Sigma-Aldrich #14343), lidocaine hydrochloride (2%; Fresenius Kabi, IL, USA; #491507), or sterile saline as a control. Solutions were delivered at a rate of 250 nL/min via two polyethylene cannulas (0.011/0.024″ ID/OD; A-M Systems, WA, USA)—one for saline and one for the active pharmacological agent—glued to the tip of a recording electrode, directly above the topmost recording contact. Cannula tips were beveled to ensure that injected solutions were released in the direction of the electrode.
(§3) Infusions of saline and BMI (500 nL) were performed in the contralateral VLO while recording directly below the site of infusion (FIG. 5B). For each solution, twenty 10 Hz stimulation/recording trials were performed before infusion onset, and twenty more trials were performed immediately after infusion. Saline was delivered first, followed by BMI. To assess the role of zona incerta, saline and lidocaine (500-1000 nL) were delivered to the ipsilateral zona incerta while recording in the contralateral VLO. […]

zona incerta = test: Single-unit recordings in contralateral VLO during 10 Hz thalamocortical stimulation after lidocaine infusion in zona incerta; type: in vivo, Sprague-Dawley rats
Protocol: ZI activity was first inactivated via incertal infusions of the sodium channel blocker lidocaine hydrochloride (FIG. 6A and FIGS. 14A-14B). […] In contrast, only 72% of units were inhibited during 10 Hz stimulation after inactivation of zona incerta with lidocaine (FIG. 6B).
as §1, §2, §3

[1] = cVLO baseline (pre-stimulation) firing rate

SMILES	stimulus-evoked change in firing rate of a representative cVLO unit (GABAA receptors; 10 Hz stimulation after BMI infusion, p=0.63)	effect on stimulus-evoked inhibition in cVLO (GABAA receptors; 10 Hz thalamocortical stimulation, after BMI infusion)	time course of the reduction in stimulus-evoked inhibition (GABAA receptors; after BMI infusion, twenty 10 Hz trials)	units whose baseline firing rate decreased following BMI infusion (GABAA receptors; [1]) [%]	units whose baseline firing rate increased following BMI infusion (GABAA receptors; [1]) [%]	recorded units not modulated by stimulation after BMI infusion (GABAA receptors; cVLO units, 10 Hz thalamocortical stimulation, after 500 nL BMI (0.6 mg/ml) infusion in cVLO, 49 units, 2 animals, 20 trials per condition) [%]	recorded units exhibiting a significant increase in firing rate during stimulation after BMI infusion (GABAA receptors; cVLO units, 10 Hz thalamocortical stimulation, after BMI infusion) [%]	average baseline firing rate across all units after BMI infusion (GABAA receptors; cVLO, p=0.66)	stimulus-evoked change in firing rate of a representative cVLO unit (zona incerta; 10 Hz stimulation after lidocaine infusion, p=0.31)	time course of the reduction in evoked inhibition (zona incerta; after lidocaine infusion in zona incerta, twenty 10 Hz trials)	units inhibited during 10 Hz stimulation after inactivation of zona incerta (zona incerta; cVLO units, lidocaine (2%, 500-1000 nL) infused in ipsilateral zona incerta, N=62 units, 20 trials per condition) [%]	stimulus-evoked changes in firing rate versus baseline and post-saline values (zona incerta; cVLO, post-hoc tests, p=9.6×10^−10 and 3.0×10^−7)	effect on remote cortical inhibition driven by 10 Hz stimulation in a subset of recorded units (zona incerta; incertal infusion, representative cVLO unit)
C[N+]1(C)CCc2cc3c(cc2[C@H]1[C@@H]1OC(=O)c2c1ccc1c2OCO1)OCO3.[I-] [BMI, bicuculline methiodide]	no longer causes a significant change in firing rate	completely eliminated the stimulus-evoked inhibition	took immediate effect after BMI infusion and continued throughout the following twenty trials	18	27	96	4	not significantly different	–	–	–	–	–
CCN(CC)CC(=O)Nc1c(C)cccc1C [lidocaine, lidocaine hydrochloride]	–	–	–	–	–	–	–	–	no longer exhibits a significant change in firing rate	took immediate effect after lidocaine infusion and persisted throughout the following twenty trials	72	different than both baseline and post-saline values	completely eliminated the remote cortical inhibition
